Data on 4 molecules can be found in ChEMBL document CHEMBL1177828, “Design and evaluation of 3,6-di(hetero)aryl imidazo[1,2-a]pyrazines as inhibitors of checkpoint and other kinases” (Bioorg Med Chem Lett, 2010).

Test [1] deals with RAC-beta serine/threonine-protein kinase (Homo sapiens) (UniProt P31751). Description: Inhibition of AKT2 at 10 uM by mobility shift assay.
For test [2], the target named is T1, Aurora kinase A (Homo sapiens) (UniProt O14965).
T1 sequence (whole entry): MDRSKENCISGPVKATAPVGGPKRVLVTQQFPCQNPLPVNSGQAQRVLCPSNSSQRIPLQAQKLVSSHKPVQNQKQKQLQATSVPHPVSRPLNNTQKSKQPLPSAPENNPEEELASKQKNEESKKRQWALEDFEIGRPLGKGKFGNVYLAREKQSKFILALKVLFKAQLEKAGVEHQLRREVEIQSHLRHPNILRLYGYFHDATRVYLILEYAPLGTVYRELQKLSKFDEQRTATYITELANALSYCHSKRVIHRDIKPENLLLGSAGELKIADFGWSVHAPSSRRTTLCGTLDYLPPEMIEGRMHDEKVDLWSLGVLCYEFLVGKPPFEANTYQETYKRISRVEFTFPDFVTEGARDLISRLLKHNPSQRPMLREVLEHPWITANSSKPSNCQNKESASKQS
Description: Inhibition of Aur A at 10 uM by mobility shift assay.

Test [3] in a line: Inhibition of PKA at 10 uM by mobility shift assay.
Test [4] addresses T2, MAP kinase-activated protein kinase 5 (Homo sapiens) (UniProt Q8IW41).
T2 sequence (whole entry): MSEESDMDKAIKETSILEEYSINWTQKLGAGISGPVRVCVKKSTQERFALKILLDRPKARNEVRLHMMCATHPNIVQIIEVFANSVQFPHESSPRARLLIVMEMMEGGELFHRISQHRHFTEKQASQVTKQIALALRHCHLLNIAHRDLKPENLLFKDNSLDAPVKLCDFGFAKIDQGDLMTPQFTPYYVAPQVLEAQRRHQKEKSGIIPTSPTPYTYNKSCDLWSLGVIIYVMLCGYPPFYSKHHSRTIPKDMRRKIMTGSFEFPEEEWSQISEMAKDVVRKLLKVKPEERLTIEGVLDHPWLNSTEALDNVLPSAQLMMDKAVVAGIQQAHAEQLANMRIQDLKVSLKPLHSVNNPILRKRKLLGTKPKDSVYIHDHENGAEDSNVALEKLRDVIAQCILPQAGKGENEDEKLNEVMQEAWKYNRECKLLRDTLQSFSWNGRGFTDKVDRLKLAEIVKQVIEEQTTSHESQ
The test is described as follows: Inhibition of PRAK1 at 10 uM by mobility shift assay.

Test [5] concerns the target Proto-oncogene tyrosine-protein kinase Src (Homo sapiens) (UniProt P12931). Description: Inhibition of SRC at 10 uM by mobility shift assay.
In test [6] the target is Glycogen synthase kinase-3 beta (Homo sapiens, UniProt P49841). Description: Inhibition of GSK3-beta.
The target of test [7] is T3, Serine/threonine-protein kinase Chk1 (Homo sapiens, UniProt O14757).
T3 sequence (O14757 whole entry): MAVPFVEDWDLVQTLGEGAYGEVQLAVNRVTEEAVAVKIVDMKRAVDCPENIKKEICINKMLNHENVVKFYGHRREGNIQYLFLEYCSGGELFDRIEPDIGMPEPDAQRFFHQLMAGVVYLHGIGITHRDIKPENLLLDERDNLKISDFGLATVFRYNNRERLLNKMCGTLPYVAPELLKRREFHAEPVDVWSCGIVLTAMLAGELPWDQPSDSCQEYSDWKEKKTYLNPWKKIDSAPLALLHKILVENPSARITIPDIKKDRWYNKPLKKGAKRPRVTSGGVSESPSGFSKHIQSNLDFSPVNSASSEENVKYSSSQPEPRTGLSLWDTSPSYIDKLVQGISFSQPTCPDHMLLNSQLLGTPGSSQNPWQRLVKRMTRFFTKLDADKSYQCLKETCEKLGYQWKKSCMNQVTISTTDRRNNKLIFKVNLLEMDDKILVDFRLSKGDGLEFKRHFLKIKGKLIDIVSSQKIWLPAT
Description: Inhibition of CHK1 by DELFIA.

Test [8] concerns the target Tyrosine-protein kinase ABL1 (Homo sapiens, UniProt P00519). Description: Inhibition of ABL1 by Z-lite assay.
Test [9] addresses RAC-alpha serine/threonine-protein kinase (Homo sapiens) (UniProt P31749). The test is described as follows: Inhibition of AKT1 at 10 uM by mobility shift assay.

Chain of Proto-oncogene tyrosine-protein kinase Src (Homo sapiens) (P12931 2-536 limits assumed): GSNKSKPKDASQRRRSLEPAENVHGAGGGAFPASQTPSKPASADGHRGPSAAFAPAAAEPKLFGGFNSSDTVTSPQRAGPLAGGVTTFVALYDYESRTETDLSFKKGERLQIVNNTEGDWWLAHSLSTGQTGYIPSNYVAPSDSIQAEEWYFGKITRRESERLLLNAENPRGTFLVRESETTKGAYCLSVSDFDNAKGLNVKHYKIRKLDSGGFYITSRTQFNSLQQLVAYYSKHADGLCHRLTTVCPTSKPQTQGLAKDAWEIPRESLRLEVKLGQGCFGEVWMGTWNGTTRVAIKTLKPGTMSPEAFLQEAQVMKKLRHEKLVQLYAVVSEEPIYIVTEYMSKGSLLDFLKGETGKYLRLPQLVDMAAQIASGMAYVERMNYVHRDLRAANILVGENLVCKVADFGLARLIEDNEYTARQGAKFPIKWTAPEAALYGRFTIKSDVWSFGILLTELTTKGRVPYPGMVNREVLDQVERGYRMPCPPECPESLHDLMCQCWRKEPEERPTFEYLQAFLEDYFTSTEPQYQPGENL
Chain of RAC-beta serine/threonine-protein kinase (Homo sapiens) (P31751 whole entry): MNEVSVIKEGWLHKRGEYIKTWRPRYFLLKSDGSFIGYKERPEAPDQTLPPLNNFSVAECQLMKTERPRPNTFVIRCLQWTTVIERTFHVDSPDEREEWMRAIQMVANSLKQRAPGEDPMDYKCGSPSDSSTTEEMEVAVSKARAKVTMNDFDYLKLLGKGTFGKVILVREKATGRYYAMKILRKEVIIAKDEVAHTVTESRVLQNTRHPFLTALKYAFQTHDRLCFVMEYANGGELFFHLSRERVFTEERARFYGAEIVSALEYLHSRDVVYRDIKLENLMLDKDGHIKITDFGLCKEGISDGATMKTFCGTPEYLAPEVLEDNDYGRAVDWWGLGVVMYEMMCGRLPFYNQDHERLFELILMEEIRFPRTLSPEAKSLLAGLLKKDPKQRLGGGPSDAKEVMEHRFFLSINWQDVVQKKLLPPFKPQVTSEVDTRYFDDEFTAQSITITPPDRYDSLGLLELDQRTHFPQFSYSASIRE
Chain of RAC-alpha serine/threonine-protein kinase (Homo sapiens) (P31749 whole entry): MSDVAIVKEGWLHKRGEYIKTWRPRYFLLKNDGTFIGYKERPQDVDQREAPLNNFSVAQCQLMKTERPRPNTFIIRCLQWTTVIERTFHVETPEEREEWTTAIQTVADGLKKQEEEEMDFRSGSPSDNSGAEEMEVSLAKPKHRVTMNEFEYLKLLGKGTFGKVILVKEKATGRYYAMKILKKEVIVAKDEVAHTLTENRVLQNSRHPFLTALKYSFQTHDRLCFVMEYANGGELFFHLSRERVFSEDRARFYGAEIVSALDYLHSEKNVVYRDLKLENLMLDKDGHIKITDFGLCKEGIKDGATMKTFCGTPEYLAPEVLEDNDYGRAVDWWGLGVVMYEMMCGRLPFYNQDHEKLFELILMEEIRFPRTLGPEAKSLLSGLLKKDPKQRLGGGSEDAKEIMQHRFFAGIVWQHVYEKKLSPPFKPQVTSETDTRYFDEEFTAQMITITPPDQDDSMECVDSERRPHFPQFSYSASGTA
Chain of Glycogen synthase kinase-3 beta (P49841 whole entry): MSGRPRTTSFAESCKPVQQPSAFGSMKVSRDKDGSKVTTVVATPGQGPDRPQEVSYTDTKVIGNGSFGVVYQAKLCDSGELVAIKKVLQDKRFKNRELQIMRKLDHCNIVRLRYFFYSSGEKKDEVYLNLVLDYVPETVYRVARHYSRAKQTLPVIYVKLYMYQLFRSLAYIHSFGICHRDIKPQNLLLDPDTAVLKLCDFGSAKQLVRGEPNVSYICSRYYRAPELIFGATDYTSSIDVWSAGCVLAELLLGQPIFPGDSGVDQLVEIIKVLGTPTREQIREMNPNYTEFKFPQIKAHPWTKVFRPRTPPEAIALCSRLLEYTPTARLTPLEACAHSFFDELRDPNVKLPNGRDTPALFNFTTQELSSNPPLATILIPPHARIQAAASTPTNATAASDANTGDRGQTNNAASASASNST
Chain of Tyrosine-protein kinase ABL1 (P00519 whole entry): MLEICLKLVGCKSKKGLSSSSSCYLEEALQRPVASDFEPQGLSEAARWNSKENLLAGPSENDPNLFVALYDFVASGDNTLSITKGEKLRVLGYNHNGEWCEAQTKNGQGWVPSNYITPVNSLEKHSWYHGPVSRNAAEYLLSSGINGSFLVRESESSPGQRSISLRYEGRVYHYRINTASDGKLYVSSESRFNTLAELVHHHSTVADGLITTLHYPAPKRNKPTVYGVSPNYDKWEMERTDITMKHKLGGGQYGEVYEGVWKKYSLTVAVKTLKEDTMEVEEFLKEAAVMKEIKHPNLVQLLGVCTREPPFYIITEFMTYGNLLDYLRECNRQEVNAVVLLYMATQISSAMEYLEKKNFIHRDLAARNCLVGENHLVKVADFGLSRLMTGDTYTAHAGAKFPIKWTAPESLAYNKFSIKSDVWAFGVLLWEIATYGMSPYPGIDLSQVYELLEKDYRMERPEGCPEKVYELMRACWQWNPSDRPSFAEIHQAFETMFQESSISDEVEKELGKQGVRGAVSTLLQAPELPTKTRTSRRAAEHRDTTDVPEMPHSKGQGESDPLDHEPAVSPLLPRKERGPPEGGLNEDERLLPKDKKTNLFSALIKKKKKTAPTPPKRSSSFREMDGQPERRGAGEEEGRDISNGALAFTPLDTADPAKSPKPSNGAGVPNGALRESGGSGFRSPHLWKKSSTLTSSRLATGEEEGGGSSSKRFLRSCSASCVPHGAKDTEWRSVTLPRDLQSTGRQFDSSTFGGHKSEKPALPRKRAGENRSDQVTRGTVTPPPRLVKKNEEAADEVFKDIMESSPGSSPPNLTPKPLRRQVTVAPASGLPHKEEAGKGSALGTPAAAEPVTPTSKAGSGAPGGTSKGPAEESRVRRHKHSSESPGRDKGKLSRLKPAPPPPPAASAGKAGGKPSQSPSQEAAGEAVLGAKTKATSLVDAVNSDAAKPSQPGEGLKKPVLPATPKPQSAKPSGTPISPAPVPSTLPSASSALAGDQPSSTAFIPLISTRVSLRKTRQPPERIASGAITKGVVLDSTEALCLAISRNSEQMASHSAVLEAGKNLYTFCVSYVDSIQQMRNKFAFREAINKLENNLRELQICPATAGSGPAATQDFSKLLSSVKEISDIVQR

Usually inhibition stands for the change of the read-out against control, counted positive when it falls. `OCc1cccc(-c2cn3c(-c4cn[nH]c4)cnc3cn2)c1`: the inhibition in [1] was 2%; in test [2], 45%; in test [3], -1%; in test [4] it was 4%; in [5], 97%.

The term IC50 denotes the concentration that gives 50% inhibition. Low readings indicate higher potency, high ones lower potency. In [6], `c1ccc(-c2cnc3cnc(-c4ccncc4)cn23)cc1` yielded an IC50 of 3.1 µM. The inhibition in [2] was 21%; in [4], 5%; in test [5], 35%.

For the molecule `c1n[nH]cc1-c1cnc2ncc(-c3cn[nH]c3)n2c1`, the results for the half-inhibitory concentration (IC50) in [7] and in test [8] were 5 µM and 0.44 µM, respectively. Further, the inhibition in test [1] is -5%; in test [2], 86%; in test [9] it was -6%; in [4], 6%; in test [5], 75%.

As for `c1ccc2c(-c3cnc4cnc(-c5cn[nH]c5)cn34)c[nH]c2c1`, the inhibition was 14% in test [1]; 87% in [2]; 11% in test [9]; 2% in [3]; 35% in test [4]; 74% in [5].
